These results are taken from US20150071856A1, “ANTAGONISTIC PEPTIDES FOR FRIZZLED-1 AND FRIZZLED-2” (Universiteit Maastricht, priority 2013, published 2015).

Positions of bridges follow the written chain, without caps; N, C: chain ends. Residues, ends and D or L forms follow the SMILES beside them. rhodamine = not defined here

One assay deals with T1, frizzled-1 (rFzd-1) (Rattus norvegicus, UniProt Q08463).
T1 construct: expressed in transfected cells; host or cells: HEK293 superTOPflash (transient, Fugene6, pcDNA3.1/hygro)
T1 sequence (Q08463 69-641): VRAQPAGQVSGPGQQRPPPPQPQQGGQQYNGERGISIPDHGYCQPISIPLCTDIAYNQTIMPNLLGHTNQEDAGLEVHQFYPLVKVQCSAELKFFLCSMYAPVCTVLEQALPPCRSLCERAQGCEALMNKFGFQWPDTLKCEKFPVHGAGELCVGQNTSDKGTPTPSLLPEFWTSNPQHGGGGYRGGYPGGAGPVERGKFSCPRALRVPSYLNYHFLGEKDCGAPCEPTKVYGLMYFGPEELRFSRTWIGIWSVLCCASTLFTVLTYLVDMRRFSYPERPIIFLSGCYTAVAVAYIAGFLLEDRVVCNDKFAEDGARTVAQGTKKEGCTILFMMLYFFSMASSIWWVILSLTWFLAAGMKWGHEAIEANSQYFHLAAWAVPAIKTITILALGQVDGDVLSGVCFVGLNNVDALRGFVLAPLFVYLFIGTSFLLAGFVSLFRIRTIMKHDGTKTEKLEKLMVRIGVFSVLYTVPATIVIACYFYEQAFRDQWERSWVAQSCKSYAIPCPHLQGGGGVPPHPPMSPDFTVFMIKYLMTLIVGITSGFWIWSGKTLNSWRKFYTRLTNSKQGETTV
Put plainly: Activity assay: luciferase reporter in HEK superTOPflash cells transfected with frizzled-1. The class given is cell-based. The conditions noted are these: for block of Wnt3a-induced luciferase activity, rFzd-1: peptide 1.10^−8 M. The method, then: (§1) Human embryonic kidney (HEK) cells were used for screening. These cells have a luciferase construct stably transfected into the genome (see FIG. 2A), such that when the frizzled receptor is activated and β-catenin is increased, the luciferase is activated by transcription and light can be measured.
(§2) The peptides were tested by transfecting the frizzled-1 or the frizzled-2 receptor and addition of UM206(S-S) to the cell culture. For testing antagonistic activity, UM206 was added and the natural ligand Wnt3a was added, which is a natural stimulus for the canonical pathway.
(§3) Day 2: Transfection 12-Well Plates • heat Fugene6 and DNA 15 minutes at RT • 2 ml serum-free medium in tube • add 3 μl fugene • add 2 μg DNA • incubate 30 minutes at RT • wash with PBS • add 50 μl transfectiemix • add 1 ml antibiotica-free medium
(§4) Day 3: Add Conditioned Medium or UM206
(§5) Day 4: Luciferase Activity Measurements • remove medium • wash with PBS • add 500 μl ⅕ lysisbuffer • shake for 60 minutes • centrifuge in tube • 20 μl lysaat and 50 μl luciferase in new tube for measurement • vortex • measure
(§6) Three areas of high homology that contained two cysteines are underlined (UM207), (UM208) and (UM206). In FIGS. 9B through 9D, the inhibitory effect of these three peptides on Wnt3a-induced luciferase activity in HEK293-superTOPflash is shown. […] Again, the peptides by themselves had no effect on the luciferase activity.
(§7) To determine the inhibitory constant of UM206-8, HEK293-superTOPflash cells were transfected with either rFzd-1 or -2 and incubated with Wnt3a (10^−9M) in the presence of increasing concentrations of either of the peptides (FIG. 15). For UM206, a biphasic inhibition curve was observed that was best fitted with a two-binding-state model.
(§8) The cell lines were cultured in 75 cm^2 culture flasks (Corning, Schiphol, the Netherlands) in Dulbeco's modified essential medium with L-glutamine (2 mM), 10% fetal calf serum (Invitrogen, Merelbeke, Belgium), and 1% gentamycin (Sigma-Aldrich, Zwijndrecht, The Netherlands). Before starting the experiment, the cell lines were treated with plasmocin 25 μg/ml (Invivogen, Toulose, France) and tested with a mycoalert mycoplasma detection kit (Lonza, Rockland Me., USA). Cells were transiently transfected with Fugene6 (Roche, Indianapolis Ind., USA) with plasmid DNA, pcDNA3.1/hygro (Invitrogen) with frizzled-1/2/4 or Wnts 3a-5a or with pcDNA3.0 (Invitrogen) containing the β-catenin or frizzled-5 sequence. After transfection, the cells were cultured for 24 hours in conditioned medium, collected from the cultured L-cells, L-cells with Wnt3a or 5a (Invitrogen). At the same moment the antagonist was added.

A further assay has as its target T2, frizzled-2 (rFzd-2) (Rattus norvegicus, UniProt Q08464).
T2 construct: expressed in transfected cells; host or cells: HEK293 superTOPflash (transient, Fugene6, pcDNA3.1/hygro)
As to the kind of experiment: Activity assay: luciferase reporter in HEK superTOPflash cells transfected with frizzled-2. Format: cell-based. The following applies: for block of Wnt3a-induced luciferase activity, rFzd-2: peptide 1.10^−8 M. How it is done:
as §1, §2, §3, §4, §5, §6, §7, §8
Background: Reporter assays use an easily measured gene product as a stand-in for the process of interest.

Another assay deals with canonical Wnt signaling. As to the kind of experiment: Activity assay (Example 1): TOPflash luciferase reporter in HEK (HEK293-superTOPflash) cells, receptor not specified. The class given is cell-based, human. The conditions noted are these: for activity on the frizzled receptor: antagonist or agonist: model of Example 1; for effect of the peptide by itself on luciferase activity: without Wnt3a. How it is done:
as §1, §2
Transfection and Luciferase Measurement:
Plate cells in 12-well plates
as §3, §4, §5, §6, §8
For the luciferase experiments not in HEK cells, the cells were additionally transfected with a TOPflash construct, eight TCF/LEF binding sites cloned into the pTA-Luc vector. Luciferase activity was measured using luciferase assay system (Promega, Madison Wis., USA).

The next assay deals with T3, hFzd-4 (Homo sapiens, UniProt Q9ULV1).
T3 construct: expressed in transfected cells; host or cells: HEK293 superTOPflash (transient, Fugene6, pcDNA3.1/hygro)
T3 sequence (Q9ULV1 37-537): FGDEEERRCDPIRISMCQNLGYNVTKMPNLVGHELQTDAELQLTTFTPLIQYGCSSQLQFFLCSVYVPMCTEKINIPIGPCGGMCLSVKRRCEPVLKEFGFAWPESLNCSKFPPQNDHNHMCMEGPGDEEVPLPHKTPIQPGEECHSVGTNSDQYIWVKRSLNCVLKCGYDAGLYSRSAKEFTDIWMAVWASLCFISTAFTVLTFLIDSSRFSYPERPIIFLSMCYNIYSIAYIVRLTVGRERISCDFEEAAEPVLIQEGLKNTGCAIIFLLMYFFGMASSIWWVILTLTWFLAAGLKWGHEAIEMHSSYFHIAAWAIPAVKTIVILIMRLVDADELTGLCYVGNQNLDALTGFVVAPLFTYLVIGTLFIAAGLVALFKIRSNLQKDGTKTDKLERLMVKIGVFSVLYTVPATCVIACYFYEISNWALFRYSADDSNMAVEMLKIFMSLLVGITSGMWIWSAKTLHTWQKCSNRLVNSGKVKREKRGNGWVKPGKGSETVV
Put plainly: Receptor specificity: luciferase in HEK293 superTOPflash cells overexpressing hFzd-4. Format: cell-based. The conditions noted are these: FIG. 3, Panel F. How it is done:
In FIG. 3, Panel E, the efficacy of UM206 to block the Wnt3a-induced activation of luciferase activity in HEK293 superTOPflash cells transfected with different Fzds is shown.
as §8

Another assay relates to Fzd-1 and -2. Put plainly: Binding of rhodamine-labeled UM206 to frozen sections of mouse kidney and small intestine and its blocking. How it is done:
Specificity of the binding site was confirmed by prior incubation of the tissue sections with UM207 (1.10^−7 M) or recombinant Wnt3a (1.10^−8 M).
One-half of the hearts of the mice was embedded in paraffin and cut in 4 μm sections. The paraffin sections were rehydrated and washed in PBS. One section was stained with AZAN, allowing an accurate determination of the infarct size. To visualize the myofibroblasts in the infarct area, the sections were incubated with an antibody directed against α-smooth muscle actin (Sigma-Aldrich), followed by incubation with the peroxidase-conjugated secondary antibody (Vector laboratories). Nuclei were visualized by hematoxylin. Photos were taken with a Leica (CTR500, 63×/0.85) camera and analyzed with the Quantimet program (QWin/QGo). An examiner blinded to the groups of the animals obtained all measurements. For the experiments with Rhodamine-labeled UM206, frozen sections (4 μm) of mouse kidney and small intestine were used.

T2 sequence (Q08464 29-570): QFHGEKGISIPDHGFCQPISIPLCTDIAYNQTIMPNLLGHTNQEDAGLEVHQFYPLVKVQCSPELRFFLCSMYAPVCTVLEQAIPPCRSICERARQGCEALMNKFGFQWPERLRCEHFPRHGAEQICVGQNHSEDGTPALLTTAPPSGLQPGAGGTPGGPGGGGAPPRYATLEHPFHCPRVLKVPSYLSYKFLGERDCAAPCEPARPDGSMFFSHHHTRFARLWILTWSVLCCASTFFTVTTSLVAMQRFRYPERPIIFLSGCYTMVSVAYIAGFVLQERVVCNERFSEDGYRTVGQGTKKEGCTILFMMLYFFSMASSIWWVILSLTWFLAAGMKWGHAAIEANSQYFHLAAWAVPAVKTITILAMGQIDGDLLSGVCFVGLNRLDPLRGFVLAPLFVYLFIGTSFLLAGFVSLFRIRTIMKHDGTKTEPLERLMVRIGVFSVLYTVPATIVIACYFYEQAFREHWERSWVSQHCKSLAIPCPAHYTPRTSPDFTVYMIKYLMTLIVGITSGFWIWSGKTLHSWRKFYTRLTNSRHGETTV

As for `CSCC[C@@H]1NC(=O)CNC(=O)[C@H](CCC(=O)O)NC(=O)[C@H](CO)NC(=O)[C@H]([C@@H](C)O)NC(=O)[C@H](CCCCN)NC(=O)[C@H](CC(N)=O)NC(=O)[C@@H](NC(C)=O)CSSC[C@@H](C(=O)N[C@@H](CCC(=O)O)C(=O)N[C@@H](CC(C)C)C(N)=O)NC(=O)CNC(=O)[C@H](CC(=O)O)NC1=O` [UM206(S-S)] (Ac-CNKTSEGMDGCEL-NH2; disulfide 1-11), the “agonist activity at frizzled-1” value on frizzled-1 (rFzd-1) (FIG. 3, Panel F) was “specific agonist”. The “agonist activity at frizzled-2” value on frizzled-2 (rFzd-2) (FIG. 3, Panel F) is recorded as “specific agonist”. Further, the “activity on the frizzled receptor: antagonist or agonist” value in the assay with canonical Wnt signaling is given as “potent agonist”. At hFzd-4, the “agonist activity at frizzled-4” value is reported as “not for frizzled-4 or frizzled-5”.
On to `CC[C@H](C)[C@H](NC(=O)CNC(C)=O)C(=O)N[C@@H](CCCCN)C(=O)N[C@@H](CCC(=O)O)C(=O)N[C@@H](CS)C(=O)N[C@@H](CCC(N)=O)C(=O)N[C@@H](Cc1ccc(O)cc1)C(=O)N[C@@H](CCC(N)=O)C(=O)N[C@@H](Cc1ccccc1)C(=O)N[C@@H](CCCNC(=N)N)C(=O)N[C@@H](Cc1c[nH]cn1)C(=O)N[C@@H](CCCNC(=N)N)C(=O)N[C@@H](CCCNC(=N)N)C(=O)N[C@@H](Cc1c[nH]c2ccccc12)C(=O)N[C@@H](CC(N)=O)C(=O)N[C@@H](CS)C(=O)N[C@@H](CO)C(=O)N[C@H](C(=O)N[C@H](C(=O)N[C@@H](CC(=O)O)C(N)=O)C(C)C)[C@@H](C)O` [UM207] (Ac-GIKECQYQFRHRRWNCSTVD-NH2), for which, at frizzled-1 (rFzd-1), the “block of Wnt3a-induced luciferase activity, rFzd-1” value was “blocked almost completely”. Also, the “blocking of UM206-rhodamine binding by prior incubation” value with Fzd-1 and -2 (UM206-rhodamine 1.10^−8 M, UM207 1.10^−7 M, Wnt3a 1.10^−8 M) is “completely abolished the binding of UM206-rhodamine”. The “block of Wnt3a-induced luciferase activity, rFzd-2” value at frizzled-2 (rFzd-2) is recorded as “blocked almost completely”. Moreover, in the assay on canonical Wnt signaling, the “activity on the frizzled receptor: antagonist or agonist” value is recorded as “potent antagonist” and the “effect of the peptide by itself on luciferase activity” value was “none of the three peptides by itself could induce an increase in luciferase activity”.
In the case of `CC(=O)NCC(=O)N[C@@H](CO)C(=O)N[C@@H](CS)C(=O)N[C@@H](CO)C(=O)N[C@@H](CC(C)C)C(=O)N[C@@H](CCCCN)C(=O)N[C@H](C(=O)N[C@@H](CS)C(=O)N[C@@H](Cc1c[nH]c2ccccc12)C(=O)N[C@@H](CC(C)C)C(=O)N[C@@H](CCC(N)=O)C(=O)N[C@@H](CC(C)C)C(=O)N[C@@H](C)C(=O)N[C@@H](CC(=O)O)C(N)=O)[C@@H](C)O` [UM208, GSCSLKTCWLQLAD] (Ac-GSCSLKTCWLQLAD-NH2), on frizzled-1 (rFzd-1), the “block of Wnt3a-induced luciferase activity, rFzd-1” value is “blocked almost completely”. For the same compound, the “block of Wnt3a-induced luciferase activity, rFzd-2” value on frizzled-2 (rFzd-2) is reported as “blocked almost completely”. Further, the “effect of the peptide by itself on luciferase activity” value in the assay with canonical Wnt signaling is on record as “none of the three peptides by itself could induce an increase in luciferase activity”.
For the compound “CNVSSHGIDGCDL (listed as Homo sapiens) [peptide derived from the area of Wnt3a homologous to UM206]”, the “antagonistic properties of UM206 analogues” value in the assay on canonical Wnt signaling (alanine scan and modifications, 1.10-9 M) is “potency was lower than that of UM206”.
As to “UM206-rhodamine: UM206 with rhodamine attached to Lys^3 (Ac-CNK(rhodamine)TSEGMDGCEL-NH2; cysteine pairing not given here; reading uncertain)”, the “staining of tissue sections” value with Fzd-1 and -2 (1.10^−8 M, 15 minutes, two-foton microscopy) was “staining of tubular epithelium and panneth cells”. Also, the “effect of rhodamine attachment to Lys^3 on IC50 for blocking Wnt3a-induced luciferase expression” value in the assay on canonical Wnt signaling (HEK293 superTOPflash cells, not shown) was “did not affect its IC50 value”.
